Results as given in patent publication US20230114177A1, “NOVEL DEUTERIUM-SUBSTITUTED PYRIMIDINE DERIVATIVE AND PHARMACEUTICAL COMPOSITION COMPRISING SAME” (ONCOBIX CO., LTD., priority 2019, published 2023).

Experiments:
BaF3 (de119/T790M/C797S) = assay: Measurement of inhibitory effect on cancer cell growth (GI50); assay type: cell-based; conditions: for GI50: Mus musculus, concentration to inhibit 50% of cell growth, BaF3 cells with EGFR de119/T790M/C797S; for activity against cancer cell lines expressing the C797S mutant epidermal growth factor receptor: summary in words of Table 1
[1] = Pharmacokinetic evaluation in rats; assay type: in vivo; conditions: single dose; for absolute absorption rate: compared with hydrogen-substituted reference substance (FIGS. 1 to 4)
Protocol: Pharmacokinetic tests were carried out in rats as follows for the compounds obtained from Examples 1 and 2 above and the compound of Example 2 in which deuterium was substituted with hydrogen (hydrogen-substituted reference substance).
After the test substances were prepared to 2.5 or 5 mg/mL using WFI (water for injection), the rats were administered as a single dose at a prescribed dose (10 mL/kg), and blood was collected at a predetermined time (0, 0.25, 0.5, 1, 2, 4, 6, 8, 10, 24 hours), and then plasma was separated. Analysis of the drug was carried out using HPLC (XBridge column C18, Waters, mobile phase of 0.1% formic acid:acetonitrile (30:70, %/%)) and MS/MS (ESI positive, MRM), and concentrations of 5, 50, 100, 500, 1,000, and 5,000 ng/ml were prepared and measured by mixing rat blank plasma and each commercial standard solution at a ratio of 9:1. In addition, QC sample preparations were prepared at concentrations of 100, 750, and 2,500 ng/ml by mixing rat blank plasma and QC standard solution in a 9:1 ratio. As for the pretreatment method, 100 μl of the plasma sample was transferred to a centrifuge tube, and 10 μl of the internal standard solution and 300 μl of methanol were added thereto, and then mixed for about 30 seconds. The tube was centrifuged for about 5 minutes at a rotation speed of 12,000 rpm (4° C.) using a centrifuge, and the supernatant was taken, transferred to an LC vial and then injected into the device. Thereafter, the concentration of the drug in rat plasma was quantified by applying the previously verified assay. For pharmacokinetic parameters, WinNonlin 5.2 (Pharsight, USA) program was used, and AUC0-t, AUC0-∞, Cmax, Tmax, and t1/2 were calculated by noncompartment modeling (best fit). Pharmacokinetic parameter results were expressed as mean and standard deviation (SD), and statistically processed using the SPSS program (Statistical Package for the Social Sciences, 10.0K, USA).

For C=CC(=O)Nc1cc(Nc2nccc(-c3cn(C)c4ccccc34)n2)c(OC)cc1N(C)CCN(C)C [Osimertinib, osimertinib, reference compound], the GI50 (BaF3 (de119/T790M/C797S)) was greater than 1000 nM and the “activity against cancer cell lines expressing the C797S mutant epidermal growth factor receptor” value (shortened to “activity”) (BaF3 (de119/T790M/C797S)) was “poor activity”.

For [2H]C([2H])([2H])N1CCN(C2CCN(c3ccc(Nc4ncc(Cl)c(Nc5ccccc5N(C)S(C)(=O)=O)n4)c(OC)c3)CC2)CC1 [Example 1, N-(2-((5-Chloro-2-((2-Methoxy-4-(4-(4-(Methyl-d3)Piperazin-1-Yl)Piperidin-1-Yl)Phenyl)Amino)Pyrimidin-4-Yl)Amino)Phenyl)-N-Methylmethanesulfonamide], the absolute absorption rate [1] was “equivalent to or greater than the control drug”, the GI50 (BaF3 (de119/T790M/C797S)) was no more than 500 nM and the “activity” value (BaF3 (de119/T790M/C797S)) was “excellent activity”.

In the case of [2H]C([2H])([2H])N(c1ccccc1Nc1nc(Nc2ccc(N3CCC(N4CCN(C)CC4)CC3)cc2OC)ncc1Cl)S(C)(=O)=O [Example 2], the “relative absorption rate compared to the hydrogen-substituted reference substance” value [1] is reported as 111.4%, the absolute absorption rate [1] is reported as “equivalent to or greater than the control drug” and the GI50 (BaF3 (de119/T790M/C797S)) is reported as no more than 500 nM. For the same compound, the “activity” value (BaF3 (de119/T790M/C797S)) was “excellent activity”.
